According to patent publication US20240342195A1, “AGENT FOR COMBINATION USE COMPRISING T CELL AND/OR B CELL ACTIVITY REGULATOR” (TOKAI UNIVERSITY EDUCATIONAL SYSTEM, priority 2021, published 2024):

How the values were obtained:
PBMC-NOG-hIL-4-Tg mouse = test: transplantation of P4/COR-cultured PBMCs to NOG-hIL-4-Tg mouse immunized with CH401MAP; format: in vivo; details: PBMCs cultured with 200 μM for 6 hours before transplantation
A20 = test: proliferating ability of cell line cultured with P4 or COR; format: cell-based, mouse; details: 2 μM or less, cultured 3 days
Description: (§1) Each of human choriocarcinoma cell line JEG-3, BeWo, and embryonic kidney cell line HEK293 was cultured for 10 days at 37° C. in 5% CO2 in a 10% Fetal Calf Serum (FCS)-containing DMEM (Gibuco) to which water-soluble progesterone (P4; water soluble) (Sigma) or cortisol (COR) (Sigma) was added in various concentrations. Each of mouse myeloma cell line P3-X63-Ag8-U1 (P3X) and mouse lymphoma cell line A20 was cultured for 3 days at 37° C. in 5% CO2 in 10% FCS-containing RPMI 1640 to which P4 or COR was added in various concentrations. Proliferation of the cells was evaluated by measuring the number of the cells.

P3-X63-Ag8-U1 (P3X) = test: as above; format: cell-based, mouse; details: 2 μM or less, cultured 3 days
Description: as §1

B cell in PBMCs [1] = test: restimulation experiment (transient vs continuous P4/COR), PD-L1 on B cells; format: cell-based, human; details: addition of 200 μM; TSST-1 3 days
Description: (§2) In a restimulation experiment, PBMCs were cultured for 6 hours at 37° C. in 5% CO2 in 10% FCS-containing RPMI 1640 to which 200 μM P4 or COR was added. These cells were washed, adjusted to a final concentration of 1×10^6/mL, and cultured again in the presence or absence of 200 μM P4 or COR with stimulation by 1 μM TSST-1. After 72 hours, the resultant cells were collected to be analyzed by FCM.

[2] = tested on: CD4 and CD8 T cells in PBMCs; test: restimulation experiment (transient vs continuous P4/COR), PD-1/PD-L1 on T cells; format: cell-based, human; details: TSST-1 3 days
Description: as §2

[3] = tested on: CD4 and CD8 T cells in PBMCs; test: FCM analysis of activation/exhaustion markers (CD25, PD-1) on T cells of TSST-1-stimulated PBMCs; format: cell-based, human; details: 20 to 200 μM
Description: (§3) The PBMCs (final concentration: 1×10^6/mL) were cultured for 3 days at 37° C. in 5% CO2 in 10% FCS-containing RPMI 1640 to which P4 or COR was added in various concentrations with stimulation by 1 μg/mL of toxic shock syndrome toxin-1 (TSST-1). These cells were collected, washed with PBS, and dispensed into a Fisher tube in an amount of 1×10^6 cells/tube. For analysis of a human cell surface marker, a fluorescent-labeled anti-human monoclonal antibody (mAbs) was used. The cells were stained with the mAbs, a reaction was performed for 15 minutes at 4° C., and the resultant was washed with PBS containing 1% (w/v) BSA. Then, the resultant was analyzed by FACS Fortessa, or FACS Verse (BD Bioscience, Franklin Lakes, NJ). In the analysis, a leukocyte gated or lymphocyte gated cells were further gated by expression of human CD45, and then the analysis was performed. A culture supernatant was collected, and 25 μL thereof was dispensed to quantitatively determine cytokine with Legend Plex™ kit from BioLegend.

[4] = tested on: B cell (CD19 gated) in human PBMCs; test: atezolizumab addition experiment, PD-L1/PD-1 expression on B cell by FCM; format: cell-based; details: 3 days
Description: (§4) As for an experiment of atezolizumab addition, 0 to 200 μM P4 or COR, 1 μM TSST-1, and 100 μg/mL atezolizumab were added to PBMCs, and the resultant was cultured for 72 hours at 37° C. in 5% CO2, followed by analysis by FCM.

[5] = tested on: Human peripheral blood mononuclear cells (PBMCs); test: number of cells of TSST-1-stimulated PBMCs cultured with P4 or COR; format: cell-based; details: PBMCs + TSST-1; 3 days
Description: as §3

[6] = tested on: Hu-PBMC-NOG (GVHD onset model); test: GVHD onset model: human PBMCs transplanted to NOG mouse, P4 or COR administered subcutaneously; format: in vivo; details: 2 mg/head subcutaneously twice a week, 4 weeks
Description: In the analysis using the GVHD model, PBMCs prepared in the same manner as described above were washed with PBS, and 2.5×10^6 PBMCs were intravenously transplanted to each 8- to 9-week-old NOG mouse. […] At the same time as the administration, the weight was measured. After 4 weeks, the mouse was anesthetized to collect heart blood, and euthanized. From various lymphoid organs excised, human cells were prepared, hemolyzed, and then subjected to FCM. Besides, the lung and the liver were excised, and immunohistochemically stained as follows. A tissue of the mouse was immobilized with 20% formalin (Wako Pure Chemical Industries, Ltd.), and embedded in paraffin. The obtained paraffin block was sliced, and the resultant was subjected to deparaffinization, mounted on a slide glass, and stained with hematoxylin and eosin (HE). In immunohistochemical staining with an anti-human CD45 antibody, the slide was subjected to a heat treatment at 97° C. for 20 minutes, and subjected to an endogenous peroxidase treatment through a reaction with 0.3% H2O2/MetOH at room temperature for 10 minutes. Thereafter, the resultant was blocked with 1% goat serum, and anti-human CD45 (Dako) was added thereto, followed by a reaction overnight at 4° C. The resultant slide was washed 3 times with 0.01 M PBS for 5 minutes, and colored with a DAB solution. The resultant was washed with running water for 3 minutes, and stained with hematoxylin, followed by dehydration and penetration/encapsulation.

HEK293 = test: proliferating ability of cell line cultured with P4 or COR; format: cell-based, human; details: 200 μM or less, cultured 10 days
Description: as §1

BeWo = test: as above; format: cell-based, human; details: 200 μM or less, cultured 10 days
Description: as §1

JEG-3 = test: as above; format: cell-based, human; details: 200 μM or less, cultured 10 days
Description: as §1

B cell in PBMCs [7] = test: FCM analysis of PD-1 on B cells of TSST-1-stimulated PBMCs; format: cell-based, human; details: TSST-1 and P4/COR stimulation; data not shown
Description: as §3

[8] = tested on: T cell (CD3 gated) in human PBMCs; test: atezolizumab addition experiment, PD-L1/PD-1 expression on T cell by FCM; format: cell-based; details: 3 days
Description: as §4

[9] = tested on: human breast cancer cell line MDA-MB-231; test: cancer-bearing CMV-NOG-hIL-4-Tg mouse with MDA-MB-231 and human PBMCs transplanted; format: in vivo
Description: 5×10^6 MDA-MB231 was subcutaneously administered to a ventral portion of a 6- to 7-week-old NOG-hIL-4-Tg mouse (a hIL-4 concentration in blood of 100 pg/mL or more). Diameters of the tumor along the ventral and in a direction at a right angle to the ventral were measured with a caliper every 2 days from one week after the administration, and the product thereof was defined as the size of the tumor. Two weeks after the tumor transplantation, 5×10^6 PBMCs were intravenously transplanted to the cancer-bearing mice and non-cancer-bearing mice as a control group. The measurement of the tumor diameters was similarly continued after the PBMC transplantation. The non-cancer bearing mice were divided into two groups, and PBS or atezolizumab ([…], 3 times (every 10 days)) was administered to each group. The cancer-bearing mice were divided into three groups, and PBS, atezolizumab ([…], 3 times (every 10 days)), or liposome (amount equivalent to 225 μg of atezolizumab and 40 μg of P4/dose, 6 times (every 5 days)) was administered to each group.
After 4 weeks, the mice were anesthetized to collect heparinized blood, and were euthanized. From various lymph tissues collected, cells were collected, and erythrocytes were removed therefrom with a hemolysis buffer to prepare a cell suspension. The number of cells therein was counted, and a human leukocyte fraction was subjected to flowcytometry (FCM) analysis. A tumor tissue was used for immunohistochemical staining.
For human immunocytochemistry, the same antibodies as those used in Example 1 were used. Cells were reacted with an appropriate amount of each of various, fluorescent-labeled antibodies for 15 minutes at 4° C., and washed with PBS containing 1% BSA. The resultant cells were analyzed with FACS Fortessa or Verse (manufactured by BD Bioscience). Living cells were gated, and human CD45-positive cells were further gated to obtain a human leukocyte fraction. These cells were further divided with a cell surface marker to obtain lymphocyte subsets. For data analysis, FlowJo (BD) was used.
A tissue of the mouse was immobilized with 20% formalin (manufactured by Wako Pure Chemical Industries, Ltd.), and embedded in paraffin. The resultant paraffin block was sliced, and the resultant was subjected to deparaffinization, mounted on a slide glass, and stained with hematoxylin and eosin (HE). In immunohistochemical staining with an anti-human CD8 antibody, the slide was subjected to a heat treatment at 120° C. for 20 minutes, and subjected to an endogenous peroxidase treatment through a reaction with 0.3% H2O2/MetOH at room temperature for 10 minutes. Thereafter, the resultant was blocked with 1% goat serum, and anti-human CD8 (manufactured by Dako) was added thereto, followed by a reaction at 25° C. for 60 minutes. The resultant slide was washed 3 times with 0.01 M PBS for 5 minutes, followed by a reaction at 25° C. for 60 minutes with simple stain MAX-PO (manufactured by Nichirei Biosciences Inc.). The resultant slide was washed 3 times with 0.01 M PBS for 5 minutes, and colored with a DAB solution. The resultant was washed with running water for 3 minutes, and stained with hematoxylin, followed by dehydration and penetration/encapsulation.

humanized mouse = test: PD-L1/PD-1 expression in humanized mouse in vivo after atezolizumab administration; details: data not shown
[10] = atezolizumab 450 pg/head/dose 3 times, liposome equivalent to 225 μg atezolizumab and 40 μg P4/dose 6 times, 4 weeks

In the case of `C[C@]12CCC(=O)C=C1CC[C@@H]1[C@@H]2[C@@H](O)C[C@@]2(C)[C@H]1CC[C@]2(O)C(=O)CO` [COR, cortisol], the “engraftment ability of transplanted PBMCs” value (PBMC-NOG-hIL-4-Tg mouse; analysis after 4 weeks) was “low engraftment ability”, the “specific antibody production (CH401MAP)” value (PBMC-NOG-hIL-4-Tg mouse; plasma after 4 weeks) was “suppressed” and the proliferation (A20) was “almost completely suppressed”. The proliferation (P3-X63-Ag8-U1 (P3X)) was “almost completely suppressed”, the “PD-L1 expression in B cell” value (B cell in PBMCs [1]) was “tended to reduce PD-L1 expression” and the “ratio of later-phase activated (PD-1/PD-L1-positive) cells” value ([2]; CD4 and CD8 T cells, continuously added, 200 μM) was “not suppressed as much as that obtained by P4 addition”. For the same compound, the “CD8 T cell activation vs control group” value ([2]; transiently added (200 μM 6 hours, washed)) was “significantly suppressed”, the “PD-1 expression on T cells” value ([3]; day 3) was “not suppressed depending on the COR concentration” and the “activation marker-negative (non-activated) T cells” value ([3]; day 3) was “not largely increased”. For the same compound, the “number of activated cells” value ([3]; day 3, data not shown) was “reduced”, the “ratio of later-phase activated (CD25-positive PD-1-positive) T cells” value ([3]; CD4 and CD8 T cells, day 3) was “did not depend on the COR concentration” and the “PD-L1 expression in a B cell” value ([4]; 0 to 200 μM, TSST-1) was “showed PD-L1 expression”. For the same compound, the “number of cells vs control group” value [5] was “substantially no difference”, the GVHD symptoms [6] was “reduced GVHD symptoms” and the lymphocyte engraftment [6] was “lymphocyte engraftment failure was also caused”. For the same compound, the lymphocytes [6] was “reduced lymphocytes”, the cell proliferating ability (HEK293) was “minimally changed” and the cell proliferating ability (BeWo) was “minimally changed”. For the same compound, the cell proliferating ability (JEG-3) was “minimally changed” and the “PD-1 expression on B cell” value (B cell in PBMCs [7]) was “not increased”.
In the case of atezolizumab, the “PD-1 expression in a T cell” value [8] was “increased”, the “PD-L1 expression in a T cell” value [8] was “reduced” and the “PD-1 expression in a B cell” value [4] was “increased”. The “engraftment of a B cell (CD19-positive) in spleen cells” value [9, 10] was “reduced”, the “ratio of a T cell (CD3-positive) in spleen cells” value [9, 10] was “increased” and the “ratio of the CD8-positive killer T cell in spleen cells” value [9, 10] was “increased”. For the same compound, the “increase of the tumor (tumor diameter)” value ([9]; compared with PBS administration group) was “suppressed”, the “human (killer) T cell infiltration into the tumor mass” value ([9]; histochemical staining (anti-human CD8), liposome compared with atezolizumab alone) was “obviously observed” and the PD-1 expression (humanized mouse) was “tended to be increased”. For the same compound, the PD-L1 expression (humanized mouse) was “tended to be reduced”.
